Results taken from article PMC4008379, “Bioenergetics and Gene Silencing Approaches for Unraveling Nucleotide Recognition by the Human EIF2C2/Ago2 PAZ Domain” (PLoS ONE, 2014).
Like-named read-outs stand apart in the source and are kept apart here. Values belong to the compound of their own block, whether it stands above or below them.

Assays:
Format in all cases: binding
[1] = biological target: T1, EIF2C2/Ago2 PAZ domain (Ago2PAZ) (Homo sapiens, UniProt Q9UKV8); experiment: ITC displacement (UMP titrated into AMP-saturated protein); settings: 25 mM potassium phosphate pH 7; 12°C; competition with UMP; unreliable (estimated, direct titration ND)
T1 construct: PAZ domain, residues 226-379, hexahistidine tag (pQE30, BamHI/HindIII), tag removal not mentioned; expressed in E. coli; Talon and Sephacryl S200HR
Excerpt: ITC displacement (UMP titrated into AMP-saturated protein) on EIF2C2/Ago2 PAZ domain (Ago2PAZ)

[2] = biological target: T1, EIF2C2/Ago2 PAZ domain (Ago2PAZ); experiment: isothermal titration calorimetry
[3] = biological target: T1, EIF2C2/Ago2 PAZ domain (Ago2PAZ); experiment: ITC displacement (UMP titrated into dAMP-saturated protein); settings: 25 mM potassium phosphate pH 7; 12°C; competition with UMP; unreliable (estimated, direct titration ND)
Excerpt: ITC displacement (UMP titrated into dAMP-saturated protein) on EIF2C2/Ago2 PAZ domain (Ago2PAZ)

[4] = biological target: T1, EIF2C2/Ago2 PAZ domain (Ago2PAZ); experiment: ITC displacement (UMP titrated into dCMP-saturated protein); settings: 25 mM potassium phosphate pH 7; 12°C; competition with UMP; unreliable (estimated, direct titration ND)
Excerpt: ITC displacement (UMP titrated into dCMP-saturated protein) on EIF2C2/Ago2 PAZ domain (Ago2PAZ)

T1 sequence (Q9UKV8 227-379): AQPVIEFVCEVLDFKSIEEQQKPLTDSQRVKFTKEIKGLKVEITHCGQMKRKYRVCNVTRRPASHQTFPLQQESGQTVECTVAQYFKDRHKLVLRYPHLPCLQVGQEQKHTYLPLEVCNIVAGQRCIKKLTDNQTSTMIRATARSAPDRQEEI

SMILES: Nc1ncnc2c1ncn2[C@@H]1O[C@H](COP(=O)(O)O)[C@@H](O)[C@H]1O [AMP]
Estimated KB / M^-1 [1]: 143 M⁻¹

SMILES: Nc1ccn([C@@H]2O[C@H](COP(=O)(O)O)[C@@H](O)[C@H]2O)c(=O)n1 [CMP]
Kd ([2]; read-out: Kd /): 40 µM

SMILES: Cc1cn([C@H]2C[C@H](O)[C@@H](COP(=O)(O)O)O2)c(=O)[nH]c1=O [TMP]
Kd ([2]; read-out: Kd /): 232 µM

SMILES: O=c1ccn([C@@H]2O[C@H](COP(=O)(O)O)[C@@H](O)[C@H]2O)c(=O)[nH]1 [UMP]
Kd ([2]; 25 mM potassium phosphate pH 7, one-set-of-sites model, fitted n 2.2, read-out: Kd /): 15 µM

SMILES: Cc1cn([C@@H]2O[C@H](COP(=O)(O)O)[C@@H](O)[C@H]2O)c(=O)[nH]c1=O [compound 2, 5-Methyluridine-5′-O-monophosphate]
Kd ([2]; read-out: Ka (converted)): 58.8 µM

SMILES: Nc1ccn([C@H]2C[C@H](O)[C@@H](COP(=O)(O)O)O2)c(=O)n1 [dCMP]
Estimated KB / M^-1 [4]: 155 M⁻¹

Next, values leading:

Kd ([2]; read-out: Kd /): 22 µM
SMILES: Nc1nc2c(ncn2[C@@H]2O[C@H](COP(=O)(O)O)[C@@H](O)[C@H]2O)c(=O)[nH]1 [GMP]

Estimated KB / M^-1 [3]: 72 M⁻¹
SMILES: Nc1ncnc2c1ncn2[C@H]1C[C@H](O)[C@@H](COP(=O)(O)O)O1 [dAMP]

Kd ([2]; read-out: Kd /): 40 µM
SMILES: Nc1nc2c(ncn2[C@H]2C[C@H](O)[C@@H](COP(=O)(O)O)O2)c(=O)[nH]1 [dGMP]
